Measured values: ChEMBL document CHEMBL3217602, “20-O-IngenolEZ, a catalytic topoisomerase II inhibitor, specifically inhibits cell proliferation and induces double-strand DNA breaks in BLM-/- cells” (2011)
The source made the active and inactive calls. The rule behind the calls is not given here.

Tests used:
[1] = test system: DT40; assay: Inhibition of chicken WRN-/- DT40 cell proliferation at 200 uM after 2 days by MTT assay; assay type: functional, cell-based; settings: Gallus gallus
[2] = test system: DT40; assay: (§1) Inhibition of chicken wild type DT40 cell proliferation at 200 uM after 2 days by MTT assay; assay type: functional; settings: Gallus gallus
[3] = test system: DT40; assay: Inhibition of chicken BLM-/- DT40 cell proliferation at 200 uM after 2 days by MTT assay; assay type: functional, cell-based; settings: Gallus gallus
[4] = test system: DT40; assay: Inhibition of chicken BLM-/- DT40 cell proliferation at 100 uM after 2 days by MTT assay; assay type: functional, cell-based; settings: Gallus gallus
[5] = test system: DT40; assay: Induction of apoptosis in chicken BLM-/- DT40 cells at 200 uM after 24 hrs by DAPI staining based immunofluorescence assay; assay type: functional, cell-based; settings: Gallus gallus
[6] = test system: DT40; assay: Inhibition of chicken WRN-/- DT40 cell proliferation at 2 to 100 uM after 2 days by MTT assay; assay type: functional, cell-based; settings: Gallus gallus
[7] = test system: DT40; assay: Inhibition of chicken wild type DT40 cell proliferation at 2 to 100 uM after 2 days by MTT assay; assay type: functional, cell-based; settings: Gallus gallus
[8] = test system: DT40; assay: Inhibition of chicken BLM-/- DT40 cell proliferation at 2 to 60 uM after 2 days by MTT assay; assay type: functional, cell-based; settings: Gallus gallus
[9] = as §1; assay type: functional; settings: Gallus gallus, DT40, 48 h
[10] = test system: DT40; assay: Induction of double-strand DNA breaks in chicken BLM-/- DT40 cell nuclear fraction assessed as gamma-H2AX phosphorylation at 200 uM after 24 hrs by immunoblot analysis; assay type: functional, cell-based; settings: Gallus gallus
[11] = test system: DT40; assay: Induction of double-strand DNA breaks in chicken BLM-/- DT40 cell nuclear fraction assessed as gamma-H2AX phosphorylation at 0.9 uM after 24 hrs by immunoblot analysis; assay type: functional, cell-based; settings: Gallus gallus
[12] = Induction of apoptosis in chicken BLM-/- DT40 cells at 0.9 uM after 24 hrs by DAPI staining based immunofluorescence assay; assay type: functional, Gallus gallus

| SMILES | inhibition [1] | inhibition [2] | inhibition [3] | inhibition [4] | Activity [5] | inhibition [6] | inhibition [7] | inhibition [8] | inhibition at 200 µM [9] | Activity [10] | Activity [11] | Activity [12] |
| --- | --- | --- | --- | --- | --- | --- | --- | --- | --- | --- | --- | --- |
| C[C@H]([C@H](C)N1CC(=O)NC(=O)C1)N1CC(=O)NC(=O)C1 | Active | Active | Active | – | – | – | – | – | – | – | – | – |
| CCCCC/C=C\C=C\C(=O)OCC1=C[C@@H]2C(=O)[C@]3(C=C(C)[C@H](O)[C@@]3(O)[C@@H]1O)[C@H](C)C[C@@H]1[C@H]2C1(C)C | inactive | – | Active | Active | Active | inactive | inactive | inactive | 50% | Active | – | – |
| COc1cccc2c1C(=O)c1c(O)c3c(c(O)c1C2=O)C[C@@](O)(C(=O)CO)C[C@@H]3O[C@H]1C[C@H](N)[C@H](O)[C@H](C)O1 [DOXORUBICIN] | – | – | – | – | – | – | – | – | – | – | Active | 60% |
